Results taken from US20260167656A1, “PHOSPHORAMIDATE COMPOUNDS AND USES THEREOF” (ALLORION THERAPEUTICS INC, priority 2022, published 2026).

Tests used:
[1] = system: non-small cell lung cancer cell line H460; assay: In vitro human cancer cell line cytotoxicity (proliferation) assay in H460, CellTiter-Glo, 72 hours; type: cell-based; conditions: H460 cells, DMSO condition (no AKR1C3 inhibitor), read-out: CTG H460: Avg IC50 (nM) [Assay Condition: DMSO]
Method: Biological Example 1. In Vitro Human Cancer Cell Line Cytotoxicity Assay
IC50 values in nanomolar reported here were derived from in vitro proliferation assay data in non-small cell lung cancer cell line H460.
(§1) Specifically, exponentially growing cells were seeded at density of 3×10^3 cells per well in 96-well plate and incubated at 37° C. in 5% CO2, 95% air and 100% relative humidity for 24 hours before adding compounds. Compounds were solubilized in 100% DMSO at 10 mM. Compounds were added to the plate using Tecan D300e® digital Dispenser. After drug addition, the plates were incubated for an additional 72 hours at 37° C. in 5% CO2, 95% air and 100% relative humidity. At the end of the incubation, cell viability was quantified with CellTiter-Glo® assay.

[2] = system: non-small cell lung cancer cell line H460; assay: H460 proliferation assay in the presence of 3 uM ASP9521 (AKR1C3 specific inhibitor); type: cell-based, human; conditions: H460 cells, CellTiter-Glo, 72 hours, in the presence of 3 uM ASP9521 added 4 hours prior to compounds; read-out: CTG H460: Avg IC50 (nM) [Assay Condition: ASP9521]
Method: as §1
To further confirm that compounds were activated by human AKR1C3, H460 proliferation assay were also performed in the presence of 3 uM […], an AKR1C3 specific inhibitor. ASP9521 were added to the plates 4 hours prior to the addition of compounds.

Row | SMILES | IC50 ([1]; Homo sapiens, NCI-H460, 72 h) [nM] | IC50 [2] [nM] | IC50 [1] [nM]
1 | O=[N+]([O-])c1ccc2c(c1Oc1ccc(F)c(-n3ccc(F)n3)c1)CC[C@@H]2OP(=O)(N1CC1)N1CC1 [Example 442] | < 10 | 667 | –
2 | Cn1ncc(F)c1-c1cccc(Oc2c([N+](=O)[O-])ccc3c2CCC3OP(=O)(N2CC2)N2CC2)c1 (centres unmarked) [Example 373] | – | 672 | < 10
3 | O=[N+]([O-])c1ccc2c(c1Oc1ccc(F)c(-c3nncs3)c1)CC[C@@H]2OP(=O)(N1CC1)N1CC1 [Example 363] | < 10 | 584 | –
4 | O=[N+]([O-])c1ccc2c(c1Oc1cccc(OCC3CC3)c1)CC[C@@H]2OP(=O)(N1CC1)N1CC1 [Example 481] | < 10 | 1120 | –
5 | O=[N+]([O-])c1ccc2c(c1Oc1cccc(-c3ccc(F)cn3)c1)CCC2OP(=O)(N1CC1)N1CC1 (centres unmarked) [Example 322] | – | 1610 | < 10
6 | CC(OP(=O)(N1C[C@@H]1C)N1C[C@@H]1C)c1ccc([N+](=O)[O-])c(Oc2ccc(-c3ccccc3)cc2)c1 (some centres unmarked) [Example 217] | < 10 | 1600 | –
7 | O=[N+]([O-])c1ccc2c(c1Oc1ccc(F)c(-c3ccccn3)c1)CC[C@@H]2OP(=O)(N1CC1)N1CC1 [Example 337] | – | 5800 | 10 to 50
8 | Cn1cc(Oc2cccc(Oc3c([N+](=O)[O-])ccc4c3CC[C@H]4OP(=O)(N3CC3)N3CC3)c2)cn1 [Example 455] | – | 1660 | < 10
9 | O=[N+]([O-])c1ccc2c(c1Oc1cccc(-c3ccccn3)c1)CC[C@@H]2OP(=O)(N1CC1)N1CC1 [Example 297] | < 10 | 1300 | –
10 | O=[N+]([O-])c1cc2c(cc1Oc1ccc(-c3cccnc3)cc1)C(OP(=O)(N1CC1)N1CC1)CC2 (centres unmarked) [Example 515] | – | 7150 | 10 to 50
11 | O=[N+]([O-])c1ccc2c(c1Oc1ccc(-c3ncc(F)cn3)cc1)CC[C@H]2OP(=O)(N1CC1)N1CC1 (single isomer, unassigned) [Example 266] | 10 to 50 | 716 | –
12 | CN(C)C(=O)c1cc(Oc2c([N+](=O)[O-])ccc3c2CC[C@@H]3OP(=O)(N2CC2)N2CC2)ccc1F [Example 255] | – | 832 | < 10
13 | COc1ccc(Oc2c([N+](=O)[O-])ccc3c2CC[C@@H]3OP(=O)(N2CC2)N2CC2)cc1C1CC1 [Example 348] | < 10 | 827 | –
14 | CN(C)C(=O)c1ccc(Oc2c([N+](=O)[O-])ccc3c2CCC3OP(=O)(N2CC2)N2CC2)cc1 (single isomer, unassigned) [Example 17] | 10 to 50 | 758 | –
15 | C[C@H]1CN1P(=O)(OCc1c(F)c(F)c(OCc2ccc([N+](=O)[O-])c(Oc3ccc(C(=O)N(C)C)cc3)c2)c(F)c1F)N1C[C@@H]1C (some centres unmarked) [Example 14] | < 10 | 553 | –
16 | O=[N+]([O-])c1ccc2c(c1Oc1ccc(-c3ncc(F)cn3)cc1)CC[C@@H]2OP(=O)(N1CC1)N1CC1 (single isomer, unassigned) [Example 265] | < 10 | 1300 | –
17 | CNC(=O)c1ccc(Oc2c([N+](=O)[O-])ccc3c2CCC3OP(=O)(N2CC2)N2CC2)cc1 (centres unmarked) [Example 37] | – | 178 | < 10
18 | C[C@H](OP(=O)(N1CC1)N1CC1)c1cc2cc(Oc3cccc(C(=O)N4CCOCC4)c3)c([N+](=O)[O-])cc2o1 [Example 557] | – | 7310 | 10 to 50
19 | O=C(c1cc(Oc2c([N+](=O)[O-])ccc3c2CC[C@@H]3OP(=O)(N2CC2)N2CC2)ccc1F)N1CCCC1 [Example 259] | – | 1550 | < 10
20 | O=[N+]([O-])c1ccc2c(c1Oc1cccc(C3CC3)c1)CCC2OP(=O)(N1CC1)N1CC1 (centres unmarked) [Example 317] | – | 1010 | < 10
21 | CC(OP(=O)(N1C[C@H]1C)N1C[C@H]1C)c1ccc([N+](=O)[O-])c(Oc2ccc(C(=O)N(C)C)cc2)c1 (some centres unmarked) [Example 216] | – | 3240 | < 10
22 | COc1ccc(-c2ccc(Oc3cc4c(cc3[N+](=O)[O-])CCC4OP(=O)(N3CC3)N3CC3)cc2)cc1 (centres unmarked) [Example 184] | 10 to 50 | 2640 | –
23 | Cn1ccc2cc(Oc3c([N+](=O)[O-])ccc4c3CCC4OP(=O)(N3CC3)N3CC3)ccc21 (centres unmarked) [Example 384] | < 10 | 1490 | –
24 | Cc1nc(-c2cccc(Oc3c([N+](=O)[O-])ccc4c3CCC4OP(=O)(N3CC3)N3CC3)c2)no1 (centres unmarked) [Example 89] | – | 6150 | 10 to 50
25 | O=[N+]([O-])c1ccc2c(c1Oc1cccc(-n3cc(C(F)F)cn3)c1)CC[C@@H]2OP(=O)(N1CC1)N1CC1 [Example 432] | < 10 | 4170 | –

Row | SMILES | IC50 ([1]; Homo sapiens, NCI-H460, 72 h) [nM] | IC50 [2] [nM] | IC50 [1] [nM]
26 | C[C@@H]1CN1P(=O)(OCc1ccc([N+](=O)[O-])c(Oc2cccc(C(=O)N(C)C)c2)c1)N1C[C@H]1C (some centres unmarked) [Example 208] | < 10 | 184 | –
27 | O=[N+]([O-])c1ccc2c(c1Oc1cccc(OC3CCCC3)c1)CC[C@H]2OP(=O)(N1CC1)N1CC1 [Example 470] | – | 1150 | < 10
28 | O=C1CCCCN1c1cccc(Oc2c([N+](=O)[O-])ccc3c2CCC3OP(=O)(N2CC2)N2CC2)c1 (centres unmarked) [Example 410] | – | 4660 | 10 to 50
29 | Cn1ccc2ccc(Oc3cc4c(cc3[N+](=O)[O-])CCC4OP(=O)(N3CC3)N3CC3)cc2c1=O (centres unmarked) [Example 156] | 10 to 50 | 895 | –
30 | O=C(c1cccc(Oc2c([N+](=O)[O-])ccc3c2CCC3OP(=O)(N2CC2)N2CC2)c1)N1CCCCC1 (centres unmarked) [Example 238] | – | 1160 | < 10
31 | CN1Cc2cc(Oc3c([N+](=O)[O-])ccc4c3CCC4OP(=O)(N3CC3)N3CC3)ccc2C1=O (single isomer, unassigned) [Example 43] | – | 314 | < 10
32 | O=C(NC1CC1)c1ccc(Oc2cc3c(cc2[N+](=O)[O-])CCC3OP(=O)(N2CC2)N2CC2)cc1 (single isomer, unassigned) [Example 173] | – | 2980 | < 10
33 | C[C@@H]1CN1P(=O)(OC(c1ccc([N+](=O)[O-])c(Oc2cccc(C(=O)N(C)C)c2)c1)C(F)(F)F)N1C[C@H]1C (some centres unmarked) [Example 228] | – | > 10000 | 10 to 50
34 | CC(C)COc1cccc(Oc2c([N+](=O)[O-])ccc3c2CCC3OP(=O)(N2CC2)N2CC2)c1 (centres unmarked) [Example 485] | – | 1150 | < 10
35 | Cc1cncc(-c2ccc(Oc3c([N+](=O)[O-])ccc4c3CCC4OP(=O)(N3CC3)N3CC3)cc2)n1 (racemic) [Example 281] | – | 787 | < 10
36 | O=[N+]([O-])c1ccc2c(c1Oc1ccc(F)c(OC3CCOCC3)c1)CC[C@@H]2OP(=O)(N1CC1)N1CC1 [Example 495] | < 10 | 635 | –
37 | Cn1cc(-c2ccc(Oc3cc4c(cc3[N+](=O)[O-])CCC4OP(=O)(N3CC3)N3CC3)cc2)ccc1=O (centres unmarked) [Example 179] | – | 1100 | ≥ 100
38 | C[C@@H](OP(=O)(N1CC1)N1CC1)c1cc2cc(Oc3cccc(C(=O)N4CCC4)c3)c([N+](=O)[O-])cc2o1 [Example 559] | – | 7000 | 10 to 50
39 | CC1(C)CN(c2cccc(Oc3c([N+](=O)[O-])ccc4c3CCC4OP(=O)(N3CC3)N3CC3)c2)C(=O)O1 (racemic) [Example 416] | – | 275 | < 10
40 | O=[N+]([O-])c1ccc2c(c1Oc1cccc(-c3ccc(F)cn3)c1)CCC2OP(=O)(N1CC1)N1CC1 (centres unmarked) [Example 323] | – | 2690 | < 10
41 | C[C@@H]1CN1P(=O)(COc1c(F)c(F)c(OCc2ccc([N+](=O)[O-])c(Oc3ccc(C(=O)N(C)C)cc3)c2)c(F)c1F)N1C[C@H]1C (some centres unmarked) [Example 15] | < 10 | 947 | –
42 | O=[N+]([O-])c1ccc2c(c1Oc1cccc(-n3ccc(C4CC4)n3)c1)CCC2OP(=O)(N1CC1)N1CC1 (centres unmarked) [Example 116] | – | 5560 | 10 to 50
43 | O=[N+]([O-])c1ccc2c(c1Oc1cccc(OC3CCCC3)c1)CC[C@@H]2OP(=O)(N1CC1)N1CC1 [Example 469] | – | 1130 | < 10
44 | O=[N+]([O-])c1ccc2c(c1Oc1ccc(-c3ccccn3)cc1)CC[C@H]2OP(=O)(N1CC1)N1CC1 (single isomer, unassigned) [Example 41] | < 10 | 1090 | –
45 | O=[N+]([O-])c1cc2oc(COP(=O)(N3CC3)N3CC3)cc2cc1Oc1ccnc(-c2ccccc2)c1 [Example 538] | < 10 | 711 | –
46 | O=[N+]([O-])c1ccc2c(c1Oc1ccc(F)c(-n3cc(F)cn3)c1)CCC2OP(=O)(N1CC1)N1CC1 (racemic) [Example 418] | – | 1210 | < 10
47 | O=C1c2cc(Oc3cc4c(cc3[N+](=O)[O-])CCC4OP(=O)(N3CC3)N3CC3)ccc2CN1C1CC1 (single isomer, unassigned) [Example 170] | < 10 | 801 | –
48 | Cn1nc(-c2cccc(Oc3c([N+](=O)[O-])ccc4c3CC[C@@H]4OP(=O)(N3CC3)N3CC3)c2)cc1F [Example 375] | < 10 | 2520 | –
49 | O=C(c1ccc(Oc2cc3c(cc2[N+](=O)[O-])CCC3OP(=O)(N2CC2)N2CC2)cc1)N1CCOCC1 (centres unmarked) [Example 161] | – | 339 | < 10
